In patent US20250241926A1, “HETEROCYCLIC COMPOUNDS FOR USE IN THE TREATMENT OF CANCER” (ARTIOS PHARMA LIMITED, priority 2021, published 2025):

Target: T1, Human Polθ polymerase domain (aa1820-2590) (Homo sapiens, UniProt O75417)
T1 construct: Human Polθ polymerase domain (aa1820-2590) was expressed in E. Coli; made in house; host or cells: E. coli
T1 sequence (O75417 1820-2590): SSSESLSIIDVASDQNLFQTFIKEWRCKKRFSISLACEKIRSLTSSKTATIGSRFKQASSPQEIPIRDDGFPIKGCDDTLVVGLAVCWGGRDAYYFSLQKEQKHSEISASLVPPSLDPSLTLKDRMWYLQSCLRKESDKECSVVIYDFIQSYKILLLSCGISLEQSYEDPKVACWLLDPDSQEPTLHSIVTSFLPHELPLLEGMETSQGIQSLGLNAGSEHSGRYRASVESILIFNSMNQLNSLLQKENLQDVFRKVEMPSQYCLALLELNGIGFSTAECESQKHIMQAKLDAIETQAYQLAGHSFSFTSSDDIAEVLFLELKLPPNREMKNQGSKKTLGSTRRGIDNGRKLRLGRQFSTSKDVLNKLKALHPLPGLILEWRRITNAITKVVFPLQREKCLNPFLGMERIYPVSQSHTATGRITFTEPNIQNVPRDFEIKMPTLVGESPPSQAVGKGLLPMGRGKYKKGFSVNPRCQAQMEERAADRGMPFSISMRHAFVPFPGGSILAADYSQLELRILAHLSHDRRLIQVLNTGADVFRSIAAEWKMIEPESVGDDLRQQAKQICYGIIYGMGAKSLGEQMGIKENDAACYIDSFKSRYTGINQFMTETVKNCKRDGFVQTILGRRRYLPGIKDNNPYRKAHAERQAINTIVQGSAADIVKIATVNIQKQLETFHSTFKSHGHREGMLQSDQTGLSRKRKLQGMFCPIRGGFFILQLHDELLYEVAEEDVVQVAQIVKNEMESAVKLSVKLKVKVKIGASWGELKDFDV
Assay: Polθ Polymerase Domain Kinact/Kl Assay (PicoGreen)
Type: biochemical
Conditions: covalent inhibitors, kobs vs [I] fit, 0.8 nM Polθ, 100 nM DNA substrate, read-out: Kinact/KI
Outline: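 E. coli-expressed enzyme (0.8 nM final) was run with 100 nM annealed DNA substrate and dNTPs in Tris pH 7.5 buffer (1% DMSO), with EDTA stops across a time course up to 60 min. Synthesised DNA was read by PicoGreen fluorescence. kobs per inhibitor concentration was fitted from the time courses, and Kinact and KI came from the kobs-vs-[I] plot.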

Compound	kinact/KI [M⁻¹ s⁻¹]
Cc1cc(C(F)(F)F)c(C#N)c(N[C@H]2CCN(CCCOC3CN(C(=O)/C=C/CN(C)C)C3)c3cc(F)ccc3N(C)C2=O)n1 [Example 42, (S,E)-2-((6-(3-((1-(4-(Dimethylamino)but-2-enoyl)azetidin-3-yl)oxy)propyl)-8-fluoro-1-methyl-2-oxo-1,2,3,4,5,6-hexahydrobenzo[b][1,4]diazocin-3-yl)amino)-6-methyl-4-(trifluoromethyl)nicotinonitrile]	820000
C=CC(=O)N1CC(n2cnc(CN3CC[C@H](Nc4nc(C)cc(C(F)(F)F)c4C#N)C(=O)N(C)c4cccc(F)c43)n2)C1 [Example 66, (S)-2-((6-((1-(1-Acryloylazetidin-3-yl)-1H-1,2,4-triazol-3-yl)methyl)-7-fluoro-1-methyl-2-oxo-1,2,3,4,5,6-hexahydrobenzo[b][1,4]diazocin-3-yl)amino)-6-methyl-4-(trifluoromethyl)nicotinonitrile]	2.4e+06
C=CC(=O)N1CC2(CN(CCN3CC[C@H](Nc4nc(C)cc(C(F)(F)F)c4C#N)C(=O)N(C)c4cccc(C)c43)CCN2)C1 [Example 69, (S)-2-((6-(2-(2-Acryloyl-2,5,8-triazaspiro[3.5]nonan-8-yl)ethyl)-1,7-dimethyl-2-oxo-1,2,3,4,5,6-hexahydrobenzo[b][1,4]diazocin-3-yl)amino)-6-methyl-4-(trifluoromethyl)nicotinonitrile]	4.1e+06
C=CC(=O)N1CC2(CN(CCN3CC[C@H](Nc4nc(C)cc(C(F)(F)F)c4C#N)C(=O)N(CC)c4cccc(F)c43)CCN2)C1 [Example 70, (S)-2-((6-(2-(2-Acryloyl-2,5,8-triazaspiro[3.5]nonan-8-yl)ethyl)-1-ethyl-7-fluoro-2-oxo-1,2,3,4,5,6-hexahydrobenzo[b][1,4]diazocin-3-yl)amino)-6-methyl-4-(trifluoromethyl)nicotinonitrile]	1.3e+06
C#CCOC(=O)N1CCN(CCN2CC[C@H](Nc3nc(C)cc(C(F)(F)F)c3C#N)C(=O)N(C)c3cccc(F)c32)CC12CN(C(=O)/C=C/CN(C)C)C2 [Example 27, (S,E)-Prop-2-yn-1-yl 8-(2-(4-((3-cyano-6-methyl-4-(trifluoromethyl)pyridin-2-yl)amino)-10-fluoro-6-methyl-5-oxo-3,4,5,6-tetrahydrobenzo[b][1,4]diazocin-1(2H)-yl)ethyl)-2-(4-(dimethylamino)but-2-enoyl)-2,5,8-triazaspiro[3.5]nonane-5-carboxylate]	940000

Second part, the compound after the results:

kinact/KI [M⁻¹ s⁻¹]	Compound
1.4e+06	C=CC(=O)N1CC2(CN(CCN3CC[C@H](Nc4nc(C)cc(C(F)(F)F)c4C#N)C(=O)N(C)c4cccc(F)c43)CCN2C(C)=O)C1 [Example 71, (S)-2-((6-(2-(5-Acetyl-2-acryloyl-2,5,8-triazaspiro[3.5]nonan-8-yl)ethyl)-7-fluoro-1-methyl-2-oxo-1,2,3,4,5,6-hexahydrobenzo[b][1,4]diazocin-3-yl)amino)-6-methyl-4-(trifluoromethyl)nicotinonitrile]
300000	C=CC(=O)N1CC2(CCCN(CCN3CC[C@H](Nc4nc(C)cc(C(F)(F)F)c4C#N)C(=O)N(C)c4cccc(F)c43)C2)C1 [Example 9, (S)-2-((6-(2-(2-Acryloyl-2,6-diazaspiro[3.5]nonan-6-yl)ethyl)-7-fluoro-1-methyl-2-oxo-1,2,3,4,5,6-hexahydrobenzo[b][1,4]diazocin-3-yl)amino)-6-methyl-4-(trifluorometh-yl)nicotinonitrile]
180000	C=CC(=O)N1CCN2CCN(CCN3CC[C@H](Nc4nc(C)cc(C(F)(F)F)c4C#N)C(=O)N(C)c4cccc(F)c43)CC2C1 (single isomer, unassigned) [Example 72A]
490000	C=CC(=O)N1CC2(CCN(CCN3CC[C@H](Nc4nc(C)cc(C(F)(F)F)c4C#N)C(=O)N(C)c4cccc(F)c43)CC2)C1 [Example 8, (S)-2-((6-(2-(2-Acryloyl-2,7-diazaspiro[3.5]nonan-7-yl)ethyl)-7-fluoro-1-methyl-2-oxo-1,2,3,4,5,6-hexahydrobenzo[b][1,4]diazocin-3-yl)amino)-6-methyl-4-(trifluorometh-yl)nicotinonitrile]
